Measurements published in paper PMC5803236 (Scientific Reports, 2018).

How the values were obtained:
[1] = target: T1, hemagglutinin (HA) of H1N1 A/Puerto Rico/8/1934 (Influenza A virus (A/Puerto Rico/8/1934(H1N1)), UniProt P03452); format: cell-based
T1 construct: native HA on whole virus (virus antigen, 4 HAU); not purified protein

[2] = target: hemagglutinin (HA) of H1N1 A/Korea/01/2009 (Pandemic) (Influenza A virus (A/Korea/01/2009(H1N1)), UniProt C5MQE6)

CC(=O)N[C@H]1[C@H]([C@H](O)[C@H](O)CO)O[C@@](OC[C@H]2O[C@@H](O[C@H]3[C@H](O)[C@@H](O)C(O)O[C@@H]3CO)[C@H](O)[C@@H](O)[C@H]2O)(C(=O)O)C[C@@H]1O (some centres unmarked) [6′-sialyllactose]
MIC [1]: > 200 mM
MIC [2]: > 200 mM
